The test addresses T1, N-type calcium channel α1B (Cav2.2), β3 and α2δ subunits (Homo sapiens, UniProt Q00975).
T1 construct: expressed in transfected cells
The experiment in a line: Functional assay, antagonism of N-type calcium channel (FDSS calcium mobilization response to KCl depolarization). In kind it is cell-based. The settings on record: for IC50: HEK stable cell line, 50 mM KCl depolarization, six-point concentration-response; for inhibition at 0.33 µM: 0.33 μM compound. As to the method: A stable cell line (HEK parent) co-expressing the α1B (Cav2.2), β3 and α2δ subunits of the N-type calcium channel subunits was used. These cells were routinely grown as monolayers in low glucose-containing Dulbecco's Modified Eagle Medium supplemented with 10% FBS, 2 mM L-glutamine, 100 I.U./mL penicillin, 100 μg/mL streptomycin, 400 μg/mL G418 and 200 μg/mL Zeocin (split ratio=1:5). Cells were maintained in 5% CO2 at 37° C. Compounds of Formula (I) were prepared as 10 mM stocks in DMSO from neat compound, if available. Otherwise, the 5 or 10 mM DMSO stock solutions provided in-house were used.
Calcium mobilization responses to KCl depolarization were evaluated by measuring the intensity of calcium-mediated fluorescent signal in the presence of BD Calcium Assay Dye (BD Biosciences, Franklin Lakes, N.J., U.S.A.), utilizing a Functional Drug Screening System (FDSS) by Hamamatsu Corporation (Bridgewater, N.J. U.S.A.).
Twenty-four hr prior to assay, cells were seeded in clear-base poly-D-lysine-coated 384-well plates (BD Biosciences) at a density of 5,000 cells per well in culture medium and grown overnight in 5% CO2 at 37° C. On the day of assay, growth media were removed, and cells were loaded with BD calcium assay dye (BD Biosciences) for 35 min at 37° C. under 5% CO2 and then for 25 min at room temp. Utilizing the FDSS, cells were exposed to representative compounds of Formula (I) at varying concentrations, and intracellular calcium was measured for 5 min prior to the addition of 50 mM KCl for an additional 3 min of measurement.
IC50 values for representative compounds of Formula (I) were determined from six-point concentration-response experiments and represent the concentration of said compound required to inhibit 50% of the maximal response. Maximal fluorescence intensity (FI) achieved upon addition of 50 mM KCl was exported from the FDSS software and further analyzed using GraphPad Prism 3.02 (Graph Pad Software Inc., San Diego, Calif., U.S.A.). Data were normalized to the maximum average counts from quadruplicate wells for each condition in the presence of 50 mM KCl and to the minimum average counts in the presence of buffer. Theoretical curves were generated using nonlinear regression curve-fitting analysis of either sigmoidal concentration-response or sigmoidal concentration-response (variable slope), and the IC50 values with the best-fit curve determined by GraphPad Prism were reported.

T1 sequence (Q00975 whole entry): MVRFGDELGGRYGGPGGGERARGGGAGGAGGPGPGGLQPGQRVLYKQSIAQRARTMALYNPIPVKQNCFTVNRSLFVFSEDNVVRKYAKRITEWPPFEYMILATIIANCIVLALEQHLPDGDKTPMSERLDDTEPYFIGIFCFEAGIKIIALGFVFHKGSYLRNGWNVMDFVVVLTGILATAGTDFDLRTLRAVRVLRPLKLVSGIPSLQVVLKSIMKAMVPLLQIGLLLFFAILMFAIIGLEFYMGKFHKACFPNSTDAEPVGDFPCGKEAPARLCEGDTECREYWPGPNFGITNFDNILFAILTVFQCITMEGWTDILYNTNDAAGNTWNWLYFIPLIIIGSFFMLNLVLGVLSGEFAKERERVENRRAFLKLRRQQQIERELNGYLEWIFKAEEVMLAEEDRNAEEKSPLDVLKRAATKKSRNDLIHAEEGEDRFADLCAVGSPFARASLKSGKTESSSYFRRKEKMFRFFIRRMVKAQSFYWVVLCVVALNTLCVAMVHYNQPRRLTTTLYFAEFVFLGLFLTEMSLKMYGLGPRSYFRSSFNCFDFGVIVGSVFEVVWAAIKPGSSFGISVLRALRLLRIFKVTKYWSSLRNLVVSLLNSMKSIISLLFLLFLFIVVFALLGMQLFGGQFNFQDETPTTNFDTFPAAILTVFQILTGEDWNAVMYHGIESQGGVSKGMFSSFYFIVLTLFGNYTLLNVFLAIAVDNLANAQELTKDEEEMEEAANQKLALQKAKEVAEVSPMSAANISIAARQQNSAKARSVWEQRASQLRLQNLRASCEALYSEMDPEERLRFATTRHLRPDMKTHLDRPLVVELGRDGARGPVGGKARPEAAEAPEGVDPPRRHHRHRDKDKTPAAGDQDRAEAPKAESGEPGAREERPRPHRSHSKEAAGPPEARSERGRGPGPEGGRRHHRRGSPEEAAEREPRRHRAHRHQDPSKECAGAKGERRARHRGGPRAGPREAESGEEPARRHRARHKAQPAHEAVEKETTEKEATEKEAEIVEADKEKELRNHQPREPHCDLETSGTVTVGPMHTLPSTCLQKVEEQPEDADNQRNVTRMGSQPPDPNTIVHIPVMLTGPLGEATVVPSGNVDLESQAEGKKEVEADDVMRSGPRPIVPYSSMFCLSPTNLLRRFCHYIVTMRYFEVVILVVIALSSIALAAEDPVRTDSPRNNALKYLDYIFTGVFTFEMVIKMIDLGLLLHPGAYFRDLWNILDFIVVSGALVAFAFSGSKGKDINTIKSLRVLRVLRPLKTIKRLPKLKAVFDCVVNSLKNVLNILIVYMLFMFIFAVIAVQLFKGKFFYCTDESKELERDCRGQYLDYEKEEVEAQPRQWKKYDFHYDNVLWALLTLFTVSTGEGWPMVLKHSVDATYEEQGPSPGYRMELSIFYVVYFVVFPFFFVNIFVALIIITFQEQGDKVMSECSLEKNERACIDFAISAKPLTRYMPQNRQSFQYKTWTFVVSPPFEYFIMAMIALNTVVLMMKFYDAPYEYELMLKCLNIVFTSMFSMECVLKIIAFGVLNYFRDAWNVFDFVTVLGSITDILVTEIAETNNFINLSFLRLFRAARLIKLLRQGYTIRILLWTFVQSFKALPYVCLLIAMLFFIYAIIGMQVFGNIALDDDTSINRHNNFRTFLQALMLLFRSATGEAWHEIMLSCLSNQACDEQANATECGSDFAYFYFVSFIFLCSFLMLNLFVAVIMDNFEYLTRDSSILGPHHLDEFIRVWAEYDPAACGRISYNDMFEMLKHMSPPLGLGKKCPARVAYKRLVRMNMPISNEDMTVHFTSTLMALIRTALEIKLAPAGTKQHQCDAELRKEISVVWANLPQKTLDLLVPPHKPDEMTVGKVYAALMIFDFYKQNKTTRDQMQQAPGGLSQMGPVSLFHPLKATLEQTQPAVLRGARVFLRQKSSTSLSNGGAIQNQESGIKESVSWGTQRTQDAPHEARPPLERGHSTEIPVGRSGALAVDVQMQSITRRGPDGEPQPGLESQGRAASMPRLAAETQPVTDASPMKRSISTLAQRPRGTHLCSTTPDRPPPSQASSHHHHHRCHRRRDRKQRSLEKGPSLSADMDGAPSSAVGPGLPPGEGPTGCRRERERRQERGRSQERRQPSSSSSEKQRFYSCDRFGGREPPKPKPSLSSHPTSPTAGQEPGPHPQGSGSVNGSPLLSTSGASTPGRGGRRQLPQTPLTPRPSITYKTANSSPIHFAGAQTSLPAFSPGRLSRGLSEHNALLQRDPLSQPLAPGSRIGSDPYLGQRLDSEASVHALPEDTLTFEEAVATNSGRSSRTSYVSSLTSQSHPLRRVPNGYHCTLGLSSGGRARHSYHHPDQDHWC
T1 sequence (P54284 whole entry partner): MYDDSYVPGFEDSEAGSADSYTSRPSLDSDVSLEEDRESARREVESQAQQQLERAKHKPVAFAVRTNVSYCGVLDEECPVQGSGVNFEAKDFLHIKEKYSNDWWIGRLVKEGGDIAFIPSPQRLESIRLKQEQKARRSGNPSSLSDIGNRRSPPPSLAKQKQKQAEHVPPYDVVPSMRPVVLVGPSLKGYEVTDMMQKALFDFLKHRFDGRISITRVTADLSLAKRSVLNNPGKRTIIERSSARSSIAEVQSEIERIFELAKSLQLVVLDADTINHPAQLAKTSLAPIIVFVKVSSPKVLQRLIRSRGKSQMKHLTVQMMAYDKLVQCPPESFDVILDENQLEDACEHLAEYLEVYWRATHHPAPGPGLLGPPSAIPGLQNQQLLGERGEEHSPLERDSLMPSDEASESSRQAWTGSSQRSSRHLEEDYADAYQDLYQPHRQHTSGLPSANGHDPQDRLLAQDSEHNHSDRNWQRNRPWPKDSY
T1 sequence (P54289 25-956 partner limits assumed): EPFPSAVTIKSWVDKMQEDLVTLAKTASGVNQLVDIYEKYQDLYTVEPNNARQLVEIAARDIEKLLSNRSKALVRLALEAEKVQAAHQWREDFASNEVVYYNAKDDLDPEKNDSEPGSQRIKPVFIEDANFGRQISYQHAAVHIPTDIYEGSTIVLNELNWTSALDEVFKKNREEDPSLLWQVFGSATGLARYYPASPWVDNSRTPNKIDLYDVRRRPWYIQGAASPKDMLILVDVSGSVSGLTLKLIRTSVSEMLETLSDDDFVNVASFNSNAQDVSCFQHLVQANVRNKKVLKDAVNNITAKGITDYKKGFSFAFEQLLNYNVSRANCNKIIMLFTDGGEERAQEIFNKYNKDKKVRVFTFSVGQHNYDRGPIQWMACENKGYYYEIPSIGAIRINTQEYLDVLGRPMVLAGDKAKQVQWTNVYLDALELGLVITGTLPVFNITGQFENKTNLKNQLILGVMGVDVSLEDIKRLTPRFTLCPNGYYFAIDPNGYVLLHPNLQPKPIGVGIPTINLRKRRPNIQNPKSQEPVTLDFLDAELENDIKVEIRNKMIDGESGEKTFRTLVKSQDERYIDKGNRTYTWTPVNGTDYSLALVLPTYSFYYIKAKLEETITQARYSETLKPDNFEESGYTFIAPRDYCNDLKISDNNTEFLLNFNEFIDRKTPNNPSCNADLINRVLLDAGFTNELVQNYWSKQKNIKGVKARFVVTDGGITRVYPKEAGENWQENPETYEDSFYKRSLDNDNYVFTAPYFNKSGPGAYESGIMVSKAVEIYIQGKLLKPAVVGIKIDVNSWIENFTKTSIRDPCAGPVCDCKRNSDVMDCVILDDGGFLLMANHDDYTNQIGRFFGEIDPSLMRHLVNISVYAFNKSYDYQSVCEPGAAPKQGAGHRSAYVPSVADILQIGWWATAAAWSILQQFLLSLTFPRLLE
T1 sequence (P54289 957-1103 partner limits assumed): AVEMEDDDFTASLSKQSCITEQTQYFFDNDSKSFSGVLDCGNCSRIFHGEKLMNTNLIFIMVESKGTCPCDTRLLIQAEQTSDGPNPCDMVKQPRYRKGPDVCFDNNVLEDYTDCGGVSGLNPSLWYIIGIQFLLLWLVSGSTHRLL

On to `CC(C)S(=O)(=O)N1Cc2nn(-c3ccccc3C(F)(F)F)c(-c3ccc(Cl)cc3)c2C1` [Cpd 16, 3-(4-Chlorophenyl)-5-[(1-methylethyl)sulfonyl]-2-[2-(trifluoromethyl)phenyl]-2,4,5,6-tetrahydropyrrolo[3,4-c]pyrazole], for which the IC50 was determined as 160 nM.

For the compound `COc1ccccc1-n1nc2c(c1-c1ccc(C)nc1)CN(S(=O)(=O)C(C)C)C2` [Cpd 94, 2-(2-Methoxyphenyl)-5-[(1-methylethyl)sulfonyl]-3-(6-methylpyridin-3-yl)-2,4,5,6-tetrahydropyrrolo[3,4-c]pyrazole], the inhibition at 0.33 µM (FDSS, 50 mM KCl) is 46%.

`CC(C)Oc1ccccc1-n1nc2c(c1-c1ccc(Cl)cc1)CN(S(=O)(=O)N(C)C)C2` [Cpd 63, 3-(4-Chlorophenyl)-N,N-dimethyl-2-[2-(1-methylethoxy)phenyl]-2,6-dihydropyrrolo[3,4-c]pyrazole-5(4H)-sulfonamide]: the IC50 was determined as 3 nM.

On to `CCc1ccccc1-n1nc2c(c1-c1ccc(Cl)cc1)CN(C(=O)c1cccnc1)C2` [Cpd 4, 3-(4-Chlorophenyl)-2-(2-ethylphenyl)-5-(pyridin-3-ylcarbonyl)-2,4,5,6-tetrahydropyrrolo[3,4-c]pyrazole], for which the IC50 was 200 nM.

Take `COc1ccccc1-n1nc2c(c1-c1ccc(OC(C)C)nc1)CN(S(=O)(=O)C(C)C)C2` [Cpd 96, 2-(2-Methoxyphenyl)-3-[6-(1-methylethoxy)pyridin-3-yl]-5-[(1-methylethyl)sulfonyl]-2,4,5,6-tetrahydropyrrolo[3,4-c]pyrazole]: the IC50 worked out at 130 nM. In addition, where the note is “FDSS, 50 mM KCl”, the inhibition at 0.33 µM was 79%.

Regarding `COc1ccccc1-n1nc2c(c1-c1cnc3ccccc3c1)CN(S(=O)(=O)C(C)C)C2` [Cpd 93, 3-{2-(2-Methoxyphenyl)-5-[(1-methylethyl)sulfonyl]-2,4,5,6-tetrahydropyrrolo[3,4-c]pyrazol-3-yl}quinoline], the IC50 came to 100 nM.

As to `CCc1ccccc1-n1nc2c(c1-c1ccc(Cl)cc1)CN(S(=O)(=O)C(F)(F)F)C2` [Cpd 3, 3-(4-Chlorophenyl)-2-(2-ethylphenyl)-5-[(trifluoromethyl)sulfonyl]-2,4,5,6-tetrahydropyrrolo[3,4-c]pyrazole], the IC50 was found to be 150 nM.

`COc1ccc(-n2nc3c(c2-c2ccc(Cl)cc2)CN(S(=O)(=O)N(C)C)C3)c(C)c1` [Cpd 69, 3-(4-Chlorophenyl)-2-(4-methoxy-2-methylphenyl)-N,N-dimethyl-2,6-dihydropyrrolo[3,4-c]pyrazole-5(4H)-sulfonamide]: the IC50 is 130 nM. In addition, for the setting “FDSS, 50 mM KCl”, the inhibition at 0.33 µM amounted to 69%.

Regarding `COc1ccc(-n2nc3c(c2-c2ccc(Cl)cc2)CN(S(=O)(=O)C2CCCCC2)C3)c(C)c1` [Cpd 68, 3-(4-Chlorophenyl)-5-(cyclohexylsulfonyl)-2-(4-methoxy-2-methylphenyl)-2,4,5,6-tetrahydropyrrolo[3,4-c]pyrazole], the IC50 is 130 nM. For the setting “FDSS, 50 mM KCl”, the inhibition at 0.33 µM came out at 71%.

`CC(C)(C)OC(=O)NCC(=O)N1Cc2nn(-c3ccccc3C(F)(F)F)c(-c3ccc(Cl)cc3)c2C1` [Cpd 18, tert-Butyl{2-[3-(4-chlorophenyl)-2-[2-(trifluoromethyl)phenyl]-2,6-dihydropyrrolo[3,4-c]pyrazol-5(4H)-yl]-2-oxoethyl}carbamate]: the IC50 stood at 480 nM.

Regarding `N#Cc1cccc(N2Cc3nn(-c4ccccc4OC(F)(F)F)c(-c4ccc(Cl)cc4)c3C2)c1` [Cpd 23, 3-[3-(4-Chlorophenyl)-2-[2-(trifluoromethoxy)phenyl]-2,6-dihydropyrrolo[3,4-c]pyrazol-5(4H)-yl]benzonitrile], the inhibition at 1 µM (1 μM compound, FDSS, 50 mM KCl) is 52%.

For `O=S1(=O)CCC(S(=O)(=O)N2Cc3nn(-c4ccccc4OC(F)(F)F)c(-c4ccc(Cl)cc4)c3C2)C1` (stereo not drawn) [Cpd 48, 3-(4-Chlorophenyl)-5-[(1,1-dioxidotetrahydrothiophen-3-yl)sulfonyl]-2-[2-(trifluoromethoxy)phenyl]-2,4,5,6-tetrahydropyrrolo[3,4-c]pyrazole], the IC50 came out at 77 nM.
